Measured values reported in ChEMBL document CHEMBL2146430, “Rational evolution of a novel type of potent and selective proviral integration site in Moloney murine leukemia virus kinase 1 (PIM1) inhibitor from a screening-hit compound” (J Med Chem, 2012).
The source made the active and inactive calls. The calls are words filed in the database; no cut-off is given here.

What was measured:
MV4-11 [1] = test: Growth inhibition of human MV4-11 cells after 48 hrs; format: functional; details: MV4-11, 48 h
[2] = Metabolic stability in human liver microsomes assessed as compound remaining at 1 uM after 1 hr; format: ADME, Microsome; details: read-out: Stability
[3] = Metabolic stability in mouse liver microsomes assessed as compound remaining at 1 uM after 1 hr; format: ADME, Microsome; details: read-out: Stability
[4] = target: T1, Serine/threonine-protein kinase pim-2 (Homo sapiens, UniProt Q9P1W9); details: 250 nM
Target sequence in this assay (Q9P1W9 whole entry, looked up): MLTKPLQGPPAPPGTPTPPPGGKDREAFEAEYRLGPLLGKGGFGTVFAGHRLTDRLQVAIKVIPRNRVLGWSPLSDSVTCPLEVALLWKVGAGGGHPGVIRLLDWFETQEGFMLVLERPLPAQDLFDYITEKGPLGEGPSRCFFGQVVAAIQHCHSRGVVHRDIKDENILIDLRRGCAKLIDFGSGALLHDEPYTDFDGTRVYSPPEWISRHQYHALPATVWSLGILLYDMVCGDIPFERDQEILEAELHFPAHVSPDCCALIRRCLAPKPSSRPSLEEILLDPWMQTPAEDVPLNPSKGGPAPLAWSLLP
Description: Inhibition of PIM2 at 250 nM by electrophoretic mobility shift assay

[5] = target: T2, Serine/threonine-protein kinase pim-3 (Homo sapiens, UniProt Q86V86); details: 250 nM
Description: Inhibition of PIM3 at 250 nM by electrophoretic mobility shift assay

[6] = target: T3, Serine/threonine-protein kinase pim-1 (Homo sapiens, UniProt P11309); test: Inhibition of PIM1 using 5-FAM-RSRHSSYPAGT-CONH2 as substrate after 2 hrs by electrophoretic mobility shift assay
Target sequence in this assay (P11309 whole entry): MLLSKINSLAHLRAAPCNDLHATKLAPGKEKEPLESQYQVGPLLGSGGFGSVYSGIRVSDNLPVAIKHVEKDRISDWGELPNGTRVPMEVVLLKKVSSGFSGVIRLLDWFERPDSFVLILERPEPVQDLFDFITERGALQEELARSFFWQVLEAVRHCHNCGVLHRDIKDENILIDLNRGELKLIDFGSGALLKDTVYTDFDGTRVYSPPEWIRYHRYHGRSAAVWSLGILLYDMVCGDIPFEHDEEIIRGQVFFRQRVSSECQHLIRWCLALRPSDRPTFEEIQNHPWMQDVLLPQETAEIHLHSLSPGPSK

[7] = target: Receptor-type tyrosine-protein kinase FLT3 (Homo sapiens) (UniProt P36888); test: Inhibition of FLT3 at 22500 nM by electrophoretic mobility shift assay
Receptor-type tyrosine-protein kinase FLT3 (Homo sapiens), sequence (P36888 whole entry): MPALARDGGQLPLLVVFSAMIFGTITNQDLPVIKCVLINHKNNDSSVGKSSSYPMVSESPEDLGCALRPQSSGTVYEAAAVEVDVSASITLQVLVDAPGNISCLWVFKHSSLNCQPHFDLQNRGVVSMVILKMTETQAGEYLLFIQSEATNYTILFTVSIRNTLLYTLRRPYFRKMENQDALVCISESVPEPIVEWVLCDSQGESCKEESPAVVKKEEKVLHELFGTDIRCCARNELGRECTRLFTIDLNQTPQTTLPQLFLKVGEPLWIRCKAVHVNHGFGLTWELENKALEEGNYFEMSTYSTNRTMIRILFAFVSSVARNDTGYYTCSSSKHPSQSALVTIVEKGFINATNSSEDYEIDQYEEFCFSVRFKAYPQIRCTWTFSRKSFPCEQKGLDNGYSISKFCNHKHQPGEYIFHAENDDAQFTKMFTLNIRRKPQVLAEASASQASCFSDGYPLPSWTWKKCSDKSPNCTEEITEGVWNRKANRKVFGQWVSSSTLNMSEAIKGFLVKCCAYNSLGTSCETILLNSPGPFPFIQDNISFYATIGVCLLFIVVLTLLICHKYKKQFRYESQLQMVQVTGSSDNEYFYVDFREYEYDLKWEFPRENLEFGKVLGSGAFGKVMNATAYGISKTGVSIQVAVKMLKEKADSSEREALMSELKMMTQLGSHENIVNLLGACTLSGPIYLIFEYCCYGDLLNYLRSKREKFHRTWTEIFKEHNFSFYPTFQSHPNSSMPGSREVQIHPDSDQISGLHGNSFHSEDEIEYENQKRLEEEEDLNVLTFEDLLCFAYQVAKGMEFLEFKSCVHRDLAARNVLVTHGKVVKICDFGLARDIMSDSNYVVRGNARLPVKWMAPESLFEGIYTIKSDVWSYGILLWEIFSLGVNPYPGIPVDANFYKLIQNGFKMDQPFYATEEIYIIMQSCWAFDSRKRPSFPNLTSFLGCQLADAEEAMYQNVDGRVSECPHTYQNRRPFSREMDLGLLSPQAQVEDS

[8] = target: Platelet-derived growth factor receptor alpha (Homo sapiens) (UniProt P16234); test: Inhibition of PDGFRalpha at 22500 nM by electrophoretic mobility shift assay
Platelet-derived growth factor receptor alpha (Homo sapiens), sequence (P16234 whole entry): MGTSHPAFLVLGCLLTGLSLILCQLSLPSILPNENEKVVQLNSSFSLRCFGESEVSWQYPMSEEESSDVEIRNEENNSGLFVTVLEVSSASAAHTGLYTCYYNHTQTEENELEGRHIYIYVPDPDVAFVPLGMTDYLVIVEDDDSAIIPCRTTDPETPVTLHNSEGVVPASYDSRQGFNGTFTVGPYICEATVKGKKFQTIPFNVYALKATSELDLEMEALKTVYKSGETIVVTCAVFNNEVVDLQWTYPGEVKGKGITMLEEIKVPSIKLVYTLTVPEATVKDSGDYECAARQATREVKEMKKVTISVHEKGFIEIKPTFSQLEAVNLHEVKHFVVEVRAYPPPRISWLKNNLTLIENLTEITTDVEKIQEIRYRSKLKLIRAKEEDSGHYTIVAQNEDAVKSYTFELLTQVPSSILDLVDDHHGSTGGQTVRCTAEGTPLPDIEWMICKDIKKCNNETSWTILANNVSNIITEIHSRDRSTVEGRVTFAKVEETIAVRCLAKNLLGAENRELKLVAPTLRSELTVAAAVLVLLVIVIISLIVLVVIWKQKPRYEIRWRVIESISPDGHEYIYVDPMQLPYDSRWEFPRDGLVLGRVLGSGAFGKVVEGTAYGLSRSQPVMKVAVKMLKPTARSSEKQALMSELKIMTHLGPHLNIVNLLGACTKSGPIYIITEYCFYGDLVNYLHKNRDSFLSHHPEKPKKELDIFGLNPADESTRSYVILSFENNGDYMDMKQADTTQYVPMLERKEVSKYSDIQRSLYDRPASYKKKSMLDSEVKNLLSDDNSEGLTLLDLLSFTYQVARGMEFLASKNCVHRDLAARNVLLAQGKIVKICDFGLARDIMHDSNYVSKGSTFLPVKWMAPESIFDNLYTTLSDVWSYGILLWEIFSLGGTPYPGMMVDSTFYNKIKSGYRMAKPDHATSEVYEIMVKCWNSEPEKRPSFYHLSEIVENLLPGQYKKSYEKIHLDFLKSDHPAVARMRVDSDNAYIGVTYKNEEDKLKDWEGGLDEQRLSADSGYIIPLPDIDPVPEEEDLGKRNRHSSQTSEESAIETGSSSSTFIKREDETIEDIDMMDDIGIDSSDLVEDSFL

[9] = target: Tyrosine-protein kinase SYK (Homo sapiens) (UniProt P43405); test: Inhibition of SYK at 22500 nM by electrophoretic mobility shift assay
[10] = target: Glycogen synthase kinase-3 beta (Homo sapiens) (UniProt P49841); test: Inhibition of GSK3beta at 22500 nM by electrophoretic mobility shift assay
Glycogen synthase kinase-3 beta (Homo sapiens), sequence (P49841 whole entry, looked up): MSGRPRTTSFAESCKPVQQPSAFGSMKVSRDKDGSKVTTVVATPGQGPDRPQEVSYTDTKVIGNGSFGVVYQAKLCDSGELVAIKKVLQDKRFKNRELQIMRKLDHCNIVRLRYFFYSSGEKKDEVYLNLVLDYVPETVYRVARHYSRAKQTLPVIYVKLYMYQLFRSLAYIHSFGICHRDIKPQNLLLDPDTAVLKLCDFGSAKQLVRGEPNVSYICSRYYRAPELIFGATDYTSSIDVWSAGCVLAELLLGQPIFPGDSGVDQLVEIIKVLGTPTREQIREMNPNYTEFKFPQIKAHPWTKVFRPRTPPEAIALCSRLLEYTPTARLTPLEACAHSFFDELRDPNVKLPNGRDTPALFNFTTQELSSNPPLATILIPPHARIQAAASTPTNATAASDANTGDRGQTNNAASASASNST

[11] = target: Epidermal growth factor receptor (Homo sapiens) (UniProt P00533); test: Inhibition of EGFR at 22500 nM by electrophoretic mobility shift assay
[12] = target: Vascular endothelial growth factor receptor 2 (Homo sapiens) (UniProt P35968); test: Inhibition of KDR at 22500 nM by electrophoretic mobility shift assay
[13] = target: Aurora kinase A (Homo sapiens) (UniProt O14965); test: Inhibition of Aurora A at 22500 nM by electrophoretic mobility shift assay
[14] = target: Mitogen-activated protein kinase kinase kinase 9 (Homo sapiens) (UniProt P80192); test: Inhibition of MLK1 at 22500 nM by ELISA
[15] = target: Serine/threonine-protein kinase 4 (Homo sapiens) (UniProt Q13043); test: Inhibition of MST1 at 22500 nM by electrophoretic mobility shift assay
[16] = target: T3, Serine/threonine-protein kinase pim-1; test: Inhibition of PIM1 at 22500 nM by electrophoretic mobility shift assay
Target sequence in this assay (P11309 whole entry, looked up): as the sequence (P11309 whole entry) above

[17] = target: T1, Serine/threonine-protein kinase pim-2; test: Inhibition of PIM2 at 22500 nM by electrophoretic mobility shift assay
Target sequence in this assay (Q9P1W9 whole entry, looked up): as the sequence (Q9P1W9 whole entry, looked up) above

[18] = target: T2, Serine/threonine-protein kinase pim-3; test: Inhibition of PIM3 at 22500 nM by electrophoretic mobility shift assay
[19] = target: T1, Serine/threonine-protein kinase pim-2; test: Inhibition of PIM2 at 300 nM by electrophoretic mobility shift assay
Target sequence in this assay (Q9P1W9 whole entry, looked up): as the sequence (Q9P1W9 whole entry, looked up) above

[20] = target: T2, Serine/threonine-protein kinase pim-3; test: Inhibition of PIM3 at 300 nM by electrophoretic mobility shift assay
[21] = target: T1, Serine/threonine-protein kinase pim-2; test: Inhibition of PIM2 by electrophoretic mobility shift assay
Target sequence in this assay (Q9P1W9 whole entry): as the sequence (Q9P1W9 whole entry, looked up) above

[22] = target: T2, Serine/threonine-protein kinase pim-3; test: Inhibition of PIM3 by electrophoretic mobility shift assay
WI-38 = test: Growth inhibition of human WI38 cells after 48 hrs; format: cell-based; details: wi-38, 48 h
MV4-11 [23] = test: Induction of apoptosis in human MV4-11 cells after 48 hrs by annexin V/propidium iodide staining based flow cytometric analysis; format: functional, cell-based
MV4-11 [24] = test: Cell cycle arrest in human MV4-11 cells assessed as accumulation at G1 phase after 48 hrs by flow cytometry; format: functional, cell-based
[25] = Metabolic stability in mouse hepatocytes assessed as compound remaining at 1 uM after 2 hrs; format: ADME, cell-based, Hepatocyte; details: read-out: Stability
CYP1A2 = CYP1A2 (Homo sapiens, UniProt P05177); test: Inhibition of CYP1A2 at 10 uM; format: ADME
CYP2C9 = CYP2C9 (Homo sapiens, UniProt P11712); test: Inhibition of CYP2C9 at 10 uM; format: ADME
CYP2C19 = CYP2C19 (Homo sapiens, UniProt P33261); test: Inhibition of CYP2C19 at 10 uM; format: ADME
CYP2D6 = CYP2D6 (Homo sapiens, UniProt P10635); test: Inhibition of CYP2D6 at 10 uM; format: ADME
CYP3A4 = CYP3A4 (Homo sapiens, UniProt P08684); test: Inhibition of CYP3A4 at 10 uM; format: ADME
hERG (KCNH2) [26] = target: T4, hERG (KCNH2) (Homo sapiens, UniProt Q12809); test: Inhibition of human ERG at 10 uM by patch clamp assay
hERG (KCNH2) [27] = target: T4, hERG (KCNH2); test: Inhibition of human ERG at 1 uM by patch clamp assay
[28] = target: Receptor-type tyrosine-protein kinase FLT3 (Homo sapiens) (UniProt P36888); test: Inhibition of FLT3 at 300 nM by electrophoretic mobility shift assay
[29] = target: T3, Serine/threonine-protein kinase pim-1; test: Inhibition of PIM1 by electrophoretic mobility shift assay
Target sequence in this assay (P11309 whole entry): as the sequence (P11309 whole entry) above

[30] = target: Receptor-type tyrosine-protein kinase FLT3 (Homo sapiens, UniProt P36888); test: Inhibition of FLT3 by electrophoretic mobility shift assay
Receptor-type tyrosine-protein kinase FLT3, sequence (P36888 whole entry): as the sequence (P36888 whole entry) above

[31] = target: T3, Serine/threonine-protein kinase pim-1; details: 300 nM
Target sequence in this assay (P11309 whole entry, looked up): as the sequence (P11309 whole entry) above
Description: Inhibition of PIM1 at 300 nM by electrophoretic mobility shift assay

[32] = target: T3, Serine/threonine-protein kinase pim-1; details: MV4-11, 0.01 to 10 uM
Target sequence in this assay (P11309 whole entry, looked up): as the sequence (P11309 whole entry) above
Description: Inhibition of PIM1-mediated BAD phosphorylation at ser136 in human MV4-11 cells at 0.01 to 10 uM after 1 hr by Western blotting

[33] = target: T3, Serine/threonine-protein kinase pim-1; test: Inhibition of PIM1 at 200 nM by electrophoretic mobility shift assay
Target sequence in this assay (P11309 whole entry, looked up): as the sequence (P11309 whole entry) above

[34] = target: T1, Serine/threonine-protein kinase pim-2; test: Inhibition of PIM2 at 200 nM by electrophoretic mobility shift assay
Target sequence in this assay (Q9P1W9 whole entry, looked up): as the sequence (Q9P1W9 whole entry, looked up) above

[35] = target: T2, Serine/threonine-protein kinase pim-3; test: Inhibition of PIM3 at 200 nM by electrophoretic mobility shift assay
[36] = target: Receptor-type tyrosine-protein kinase FLT3 (Homo sapiens) (UniProt P36888); test: Inhibition of FLT3 at 200 nM by electrophoretic mobility shift assay
[37] = target: Platelet-derived growth factor receptor alpha (Homo sapiens) (UniProt P16234); test: Inhibition of PDGFRalpha at 200 nM by electrophoretic mobility shift assay
[38] = target: Death-associated protein kinase 1 (Homo sapiens) (UniProt P53355); test: Inhibition of DAPK1 at 200 nM by electrophoretic mobility shift assay
[39] = target: Glycogen synthase kinase-3 beta (Homo sapiens) (UniProt P49841); test: Inhibition of GSK3beta at 200 nM by electrophoretic mobility shift assay
[40] = target: Protein kinase C alpha type (Homo sapiens) (UniProt P17252); test: Inhibition of PKCalpha at 200 nM by electrophoretic mobility shift assay
[41] = target: Serine/threonine-protein kinase D2 (Homo sapiens) (UniProt Q9BZL6); test: Inhibition of PKD2 at 200 nM by electrophoretic mobility shift assay
[42] = target: Rho-associated protein kinase 1 (Homo sapiens) (UniProt Q13464); test: Inhibition of ROCK1 at 200 nM by electrophoretic mobility shift assay
[43] = target: T2, Serine/threonine-protein kinase pim-3; test: Inhibition of PIM3 at 600 nM by electrophoretic mobility shift assay
[44] = target: Receptor-type tyrosine-protein kinase FLT3 (Homo sapiens) (UniProt P36888); test: Inhibition of FLT3 at 600 nM by electrophoretic mobility shift assay
[45] = target: Platelet-derived growth factor receptor alpha (Homo sapiens) (UniProt P16234); test: Inhibition of PDGFRalpha at 600 nM by electrophoretic mobility shift assay
[46] = target: Tyrosine-protein kinase SYK (Homo sapiens) (UniProt P43405); test: Inhibition of SYK at 600 nM by electrophoretic mobility shift assay
[47] = target: T3, Serine/threonine-protein kinase pim-1; test: Inhibition of PIM1 at 600 nM by electrophoretic mobility shift assay
Target sequence in this assay (P11309 whole entry, looked up): as the sequence (P11309 whole entry) above

[48] = target: T1, Serine/threonine-protein kinase pim-2; test: Inhibition of PIM2 at 600 nM by electrophoretic mobility shift assay
Target sequence in this assay (Q9P1W9 whole entry, looked up): as the sequence (Q9P1W9 whole entry, looked up) above

For `COc1ccc2c(c1CN1CCNCC1)O/C(=C\c1c[nH]c3ccccc13)C2=O`, the GI50 (MV4-11 [1]) was 95 nM, the remaining at 1 h, 1 µM [2] was 82% and the remaining at 1 h, 1 µM [3] was 86%. It also gave an inhibition [4] of 30% and an inhibition [5] of 98%.
`O=C1/C(=C/c2c[nH]c3ccccc23)Oc2c1ccc(O)c2CN1CCCCCC1` showed a remaining at 1 h, 1 µM [2] of 36%, a remaining at 1 h, 1 µM [3] of 44% and an IC50 [6] of 410 nM. For the same molecule, the inhibition [7] was “Active”, the inhibition [8] was “Active” and the inhibition [9] was “Active”. The inhibition [10] was “Active”, the inhibition [11] was “Active” and the inhibition [12] was “Active”. The inhibition [13] was “Active”, the inhibition [14] was “Active” and the inhibition [15] was “Active”. The inhibition [16] was 77%, the inhibition [17] was 46% and the inhibition [18] was 88%.
In the case of `COc1ccc2c(c1CN1CCNCC1)O/C(=C\c1n[nH]c3ccccc13)C2=O`, the inhibition [19] is reported as 19%, the inhibition [20] is reported as 98% and the IC50 [21] is reported as 1160 nM. For the same molecule, the IC50 [22] was 13 nM, the GI50 (MV4-11 [1]) was 43 nM and the Activity (WI-38) was “Non-toxic”. For the same molecule, the Activity (MV4-11 [23]) was “Dose-dependent effect”, the Activity (MV4-11 [24]) was “Dose-dependent effect” and the remaining at 1 h, 1 µM [2] was greater than 99%. For the same molecule, the remaining at 1 h, 1 µM [3] was 92%, the remaining at 2 h, 1 µM [25] was 89% and the inhibition at 10 µM (CYP1A2) was 33%. The inhibition at 10 µM (CYP2C9) was less than 1%, the inhibition at 10 µM (CYP2C19) was 54% and the inhibition at 10 µM (CYP2D6) was 11%. It also gave an inhibition at 10 µM (CYP3A4) of 10%, an inhibition at 10 µM (hERG (KCNH2) [26]) of 60% and an inhibition at 1 µM (hERG (KCNH2) [27]) of 13%. For the same molecule, the IC50 [6] was 3 nM, the inhibition [28] was “Active” and the IC50 [29] was 6 nM. For the same molecule, the IC50 [30] was 47 nM, the inhibition [31] was 99% and the inhibition [32] was “inactive”.
In the case of `COc1ccc2c(c1CN1CCNCC1)O/C(=C\c1c[nH]c3ccncc13)C2=O`, the IC50 [6] is reported as 53 nM.
Molecule `O=C1/C(=C/c2c[nH]c3ccccc23)Oc2c1ccc(OCc1ccccc1)c2CN1CCNCC1` has an IC50 [6] of 43 nM.
`CN1CCN(Cc2c(O)ccc3c2O/C(=C\c2c[nH]c4ccccc24)C3=O)CC1` showed an IC50 [6] of 388 nM.
For `COc1ccc2c(c1CN1CCNCC1)O/C(=C\c1c[nH]c3ncccc13)C2=O`, the inhibition [33] was greater than 99%, the inhibition [34] was 39% and the inhibition [35] was 99%. The IC50 [6] was 2 nM, the inhibition [36] was “Active” and the inhibition [37] was “Active”. For the same molecule, the inhibition [38] was “Active”, the inhibition [39] was “Active” and the inhibition [40] was “Active”. For the same molecule, the inhibition [41] was “Active” and the inhibition [42] was “Active”.
In the case of `O=C1/C(=C/c2c[nH]c3ccccc23)Oc2c1ccc(O)c2CN1CCCNCC1`, the IC50 [6] is reported as 102 nM.
`CCCOc1ccc2c(c1CN1CCNCC1)O/C(=C\c1c[nH]c3ccccc13)C2=O` showed an IC50 [6] of 12 nM.
Molecule `O=C1/C(=C/c2c[nH]c3ccccc23)Oc2c1ccc(O)c2CN1CCNCC1` has an inhibition [43] of 97%, a GI50 (MV4-11 [1]) of 270 nM and a remaining at 1 h, 1 µM [2] of 90%. For the same molecule, the remaining at 1 h, 1 µM [3] was 71%, the IC50 [6] was 17 nM and the inhibition [44] was “Active”. The inhibition [45] was “Active”, the inhibition [46] was “Active” and the inhibition [47] was 98%. It also gave an inhibition [48] of 30%.
With `COc1ccc2c(c1CN1CCNCC1)O/C(=C\c1c[nH]c3cccnc13)C2=O` the IC50 [6] was 447 nM.
With `CCOc1ccc2c(c1CN1CCNCC1)O/C(=C\c1c[nH]c3ccccc13)C2=O` the IC50 [6] was 6 nM.
Work on `O=C1/C(=C/c2c[nH]c3ccccc23)Oc2c(CN3CCNCC3)cccc21` yielded an IC50 [6] of 20 nM.
